Test [1] deals with J774A.1 macrophages. Description: M2-polarization of macrophages grown in conditioned media (qPCR). The conditions noted are these: macrophages 48 h in conditioned media of MMTV-Prune1-Wnt1 cells treated with 10 µM. The class given is cell-based, murine. Here is the method: The effects of MMTV-Prune-1/Wnt1 cells upon treatment with LEO-AA7.5(S)T were analyzed for M2-polarization of J774A. 1 murine macrophages. Briefly 1 ×10^6 MMTV-Prune-1/Wnt1 cells were resuspended in 10 mL complete DMEM medium, plated into 10-cm-diameter plates, treated with 10 µM LEO-AA7.5(S)T or water as vehicle control, and grown at 37 °C for 24 h. Then the conditioned media were collected. One day before culture in the conditioned media, J774A.1 macrophages were plated into 10-cm-diameter plates. At the time of the culturing in conditioned media, macrophages were at 50% confluence, and after 6 h of starvation in serum-free medium, the macrophages were grown in conditioned media for 48 h. Each experimental point was carried out in triplicate. After the culturing in the conditioned media, the macrophages were washed with PBS, collected, and used for RNA extraction.
RNA samples were extracted using TRIzol RNA Isolation Reagent (15596026, Invitrogen), according to the manufacturer instructions. […] The targets were detected with the SYBR green approach, using BrightGreen BlasTaq 2× PCR MasterMix (G895; ABM). Human ACTB was used as the housekeeping gene to normalize the quantification cycle (Cq) values of the other genes. […] Relative expression of the target genes was determined using the 2^-ΔΔCq method, as the fold increase compared with the controls. […]

Test [2] concerns inflammatory cytokines targeted by IMIDs drugs. Description: qPCR of inflammatory cytokines in MATH1-Prune1/TP53-/- cells. The class given is cell-based, murine. The conditions noted are these: 10 µM, 24 hours. Here is the method: RNA samples were extracted using TRIzol RNA Isolation Reagent (15596026, Invitrogen), according to the manufacturer instructions. Reverse transcription was performed with 5× All-In-One RT MasterMix (g592; ABM), according to the manufacturer instructions. The reverse transcription products (cDNA) were amplified by qRT-PCR using an RT-PCR system (7900; Applied Biosystems, Foster City, CA, USA). The cDNA preparation was through the cycling method, by incubating the complete reaction mix as follows: cDNA reactions: (37 °C for 10 min and 60 °C for 15 min); Heat-inactivation: 95 °C for 3 min; Hold stage: 4 °C. The targets were detected with the SYBR green approach, using BrightGreen BlasTaq 2× PCR MasterMix (G895; ABM). Human ACTB was used as the housekeeping gene to normalize the quantification cycle (Cq) values of the other genes. These runs were performed on a PCR machine (Quantstudio5, Lifetechnologies) with the following thermal protocol: Hold stage: 50 °C for 2 min; Denaturation Step: 95 °C for 10 min; Denaturation and annealing (×45 cycles): 95 °C for 15 s and 60 °C for 60 s; Melt curve stage: 95 °C for 15 s, 60 °C for 1 min, and 95 °C for 15 s. Relative expression of the target genes was determined using the 2^-ΔΔCq method, as the fold increase compared with the controls. The data are presented as means ±SD of the 2^-ΔΔCq values (normalized to human ACTB) of three replicates.
On the technique in general: In qPCR the cycle at which signal appears reflects the starting amount.

In test [3] the test system is CD4+/ CD8+ T cells. As to the kind of experiment: Tconv to Treg conversion of T cells grown in conditioned media (immunofluorescence CD4/FOXP3). The class given is cell-based, FVB mice. Here is the method:
The isolation of untouched mouse CD4+/ CD8+ T cells from single-cell suspensions from spleen of n.2 naive FVB mice were performed by using Pan T Cell Isolation Kit II, mouse (130-095-130, Miltenyi biotec), according to the manufacturer instruction. Once isolated, T cells were grown for 48 hours in the conditioned media previously collected for 24 hours from pooled vehicle- or 10 µM LEO-AA7.5(S)T-treated MATH1-Prune1/TP53-/- cells.
T cells grown for 48 hours in conditioned media collected from vehicle- or LEO-AA7.5(S)T-treated MATH1-Prune1/TP53-/- cells were fixed in 4% paraformaldehyde in phosphate-buffered saline (PBS) for 30 min, washed three times with PBS, and permeabilized for 15 min with 0.1% Triton X-100 (215680010; Acros Organics) diluted in PBS. The cells were then blocked with 3% bovine serum albumin (A9418; Sigma) in PBS for 1 h at room temperature. The samples were incubated with the appropriate primary antibodies overnight at 4 °C: anti-FOXP3 (1:2000; ab54501; Abcam); anti-CD4 (1:100; sc-19641, SantaCruz). After washing with PBS, the samples were incubated with the secondary antibody at room temperature for 1 h, as anti-mouse Alexa Fluor 488 (1:200; ab 150113; Abcam) or anti-rabbit Alexa Fluor 546 (1:200; Abcam). DNA was stained with DAPI (1:1000; #62254, Thermo Fisher). The slides were washed and mounted with cover slips with 50% glycerol (G5150; Sigma-Aldrich). […]

For test [4], the system named is human and murine Prune1. As to the kind of experiment: Immunoblotting of MATH1-Prune1/TP53-/- cells. The format is cell-based. The settings on record: 10 µM, 24 hours. Here is the method: Cells for immunoblotting analysis were washed in cold PBS and lysed in cell lysis buffer [20 mM sodium phosphate (pH 7.4), 150 mM NaCl, 10% (v/v) glycerol, 1% (w/v) sodium deoxycholate, 1% (v/v) Triton X-100] supplemented with protease inhibitors (Roche). The resulting cell lysates were cleared by centrifugation at 16,200g for 10 min at room temperature, and the supernatants were re- moved and assayed for protein concentrations with the Protein Assay Dye Reagent (Bio-Rad). The cell lysates (30 µg) were resolved by SDS-polyacrylamide gel electrophoresis (SDS-PAGE) gels of different percentages, which depended on the molecular weights of the proteins of interest. The proteins were then electrophoretically transferred to polyvinylidene difluoride (PVDF) membranes (Millipore). After 1 hour in blocking solution with 5% (w/v) dry milk fat in PBS or 5% (w/v) BSA (Sigma-Aldrich) in tris-buffered saline [both of which contained 0.02% (v/v) Tween 20] (TBS-Tween), the PVDF mem- branes were incubated with the required primary antibody overnight at 4°C: anti-PRUNE1 (1:250; Ferrucci et al., 2018), or anti- β-actin (1:10,000; A5441, Sigma-Aldrich). […] The peak areas of the bands were measured on the densitometry plots, and the relative proportions (percentages) were calculated. […]
(In western blotting, separated proteins are transferred to a membrane and probed.)

The structures appear in SMILES notation.

On to `COc1ccc(CNc2ncnc(N3CCC[C@H](CO)C3)n2)cc1.Cl` [LEO-AA7.5(S)T, (S)-(1-(4-((4-methoxybenzyl)amino)-1,3,5-triazin-2-yl)piperidin-3-yl)methanol HCl salt], for which the “levels of M2-polarized marker genes in macrophages” value in test [1] is on record as “decreased levels”. For the same compound, the “levels of inflammatory cytokines targeted by IMIDs drugs (qPCR)” value in test [2] is reported as “decreased levels”. Moreover, in test [3] (T cells 48 hours in conditioned media of cells treated with 10 µM for 24 hours, vs vehicle conditioned media), the “percentage of Tregs (CD4+FOXP3+) among T cells” value is on record as “decrease”. Further, the “inhibition of the conversion from Tconv to Treg cells, compared with 100 µM AA7.1” value in test [3] (ex vivo, 10 µM vs 100 µM AA7.1) is “comparable”. Moreover, in test [4], the “human and murine Prune1 levels (immunoblotting)” value was “reduced human and murine Prune1 levels”; the “nuclear phosphorylated SMAD2 and OTX2 (immunoblotting)” value was “inhibition”.

The values are drawn from EP4361137A1, “PRUNE1 INHIBITORS AND THERAPEUTIC USE THEREOF” (CEINGE Biotecnologie Avanzate Franco Salvatore s.c. a r.l., priority 2022, dated 2024).
